Reference: publication PMC12048343, “Discovery of a small molecule secreted clusterin enhancer that improves memory in Alzheimer’s disease mice” (npj Drug Discovery, 2025)
≈ marks a conversion by molar mass, not a printed value. Entries after “also recorded” stand apart in the source; their conditions may differ. Read-outs that look alike come from different tables or passages of the source.

Experiments:
[1] = Plasma binding assay (dialysis); format: in vitro ADME; details: dialysis 4.5 hours, 37 °C
Procedure: (§1) Brain tissue was homogenized in PBS (pH 7.4) (1: 3 weight(mg)/volume(µL)) and the protein concentration was determined using the Micro BCA™ Protein Assay Kit (Thermo Fisher Scientific, Cat#23235). Brain homogenate was clarified and diluted to 20 mg/mL in PBS (pH 7.4). Either brain homogenate or plasma was and added to Slide-A-Lyzer™ MINI Dialysis Devices, 10 K MWCO dialysis cups (Thermo Fisher Scientific, Cat#PI88401) in a 48-well plate containing PBS (500 µL; pH 7.4). 1 µL of 1 mM compound was added to the brain homogenate (Final Concentration: 2 µM compound, 0.5% DMSO) and incubated on a rocker for 4.5 hours at 37 °C. 50 µL of brain homogenate or plasma (within the dialysis cup) and PBS (within the 48-well plate) were transferred to new microcentrifuge tubes containing 400 µL of quenching reagent (100% Acetonitrile) containing internal standard. Solutions were clarified by centrifugation (16,000 x g, 5 min), and the supernatants were transferred to new tubes and lyophilized. Samples were reconstituted in 100 µL of 50/50/0.1 (Water/Acetonitrile/Formic Acid) prior to analysis via liquid chromatography-tandem mass spectrometry (LC-MS/MS). The % of the unbound drug (fu,bound) was calculated using the following equation:
(§2) % Bound = [1− (PBS chromatographic peak area/ brain homogenate or plasma chromatographic peak area)] x 100

[2] = Kinetic solubility; format: physicochemical; details: aqueous buffer, kinetic from dmso stock, PBS pH 7.4, 37 °C, 100 µM nominal
Procedure: Test compound (10 mM, 100% DMSO) was diluted separately into aqueous buffer (100 µM; PBS pH 7.4) and DMSO at various concentrations (1000, 100, 10, 1, 0.1 µM). The solutions were then incubated at 37 °C for 90 min and centrifuged (16000xg, 5 min). An aliquot of each supernatant was analyzed by UV/Vis (if possible) or LC-MS/MS. A standard curve was made by plotting the known amount of analyte per standard in DMSO vs. absorbance or chromatographic peak area. Kinetic solubility (mM) was calculated using the trendline equation with maximum absorbance or chromatographic peak area observed in the aqueous sample.

[3] = Blood-Brain Barrier (BBB) permeability assay (IAM column, Pm); format: in vitro ADME; details: pH 7.4; Pm > 1.0 = CNS+
Procedure: A liquid chromatography-ultraviolet/visible spectroscopy (LC-UV/Vis) assay was performed on a 1290 Infinity HPLC system (Agilent Technologies) with an HPLC column containing immobilized phosphatidylcholine (IAM.PC.DD, Regis Technologies, Cat#774011, 5 µm 300 Å 100 ×4.6 mm). The HPLC method was a mixture of 6.7 mM phosphate buffer saline (pH 7.4; solvent A) and acetonitrile (solvent B), and a gradient was used for the elution of the compounds (min/%B: 0/20, 20/60, 21/20, 30/20). The retention time of the compound (tr) and void volume time of the column (t0) were recorded. Blood-brain barrier (BBB) permeability (Pm) was calculated using the following equations as described by Yoon et al. (10.1177/1087057105281656):
KIAM = (tr − t0) / t0; Pm = (KIAM / MW^4) x 10^10
Compounds with a Pm > 1.0 were determined to be BBB permeable (CNS + ) at pH 7.

[4] = test system: sCLU secreted from human U-87 MG glioblastoma cells; assay: Human sCLU AlphaLISA on supernatant of U-87 MG cells (HTS, re-test, dose response); format: cell-based; details: for sCLU levels relative to DMSO control: 5 µM
Procedure: Cell culture supernatant (2 μL) was added to a 384-well proxy plate preloaded with AlphaLISA HiBlock buffer (2 µL, 1X, CAT#AL004C, Perkin Elmer). Then an anti-sCLU antibody mixture (2 µL, mAb J84, biotinylated (10 nM, Cat# 3717-6-1000, Mabtech) and mAb CLU aa 22-227 (Cat#AF7084, R&D Systems), Acceptor bead conjugated (50 µg/mL, Cat#6772001, Perkin Elmer)) was added and incubated at room temperature for 1 hour. AlphaScreen Streptavidin Donor beads (2 µL, Cat#6760002S, Perkin Elmer) were added, incubated for an additional 30 min in the dark, and the plate was read in an Envision plate reader.
Human glioblastoma U-87 MG cells were proliferated in EMEM with 10% FBS and 1% P/S (complete medium) in 10 cm dishes until approximately 90% confluent. Following trypsinization, a suspension of 2 × 10^5 cells/mL (25 µL) were added to 384-well plates containing complete medium (25 µL) and library compounds from 9 plates (5 µM). After incubation for 30 h at 37 °C and 5% CO2, 2 μL of cell culture supernatant were analyzed via human sCLU AlphaLISA as described above. Cell culture medium and cells were added to the 384-well plates using the MultiDrop. The BioMek FX was used to pin the drugs and transfer the cell culture supernatant. The MANTIS liquid handler was used to added human sCLU AlphaLISA reagents.
Human glioblastoma U-87 MG cells were proliferated in EMEM with 10% FBS and 1% P/S (complete medium) in 10 cm dishes until approximately 90% confluent. […] After incubation for 30 hours at 37 °C and 5% CO2, 2 μL of cell culture supernatant were analyzed via human sCLU AlphaLISA as described above.

[5] = Liver microsome stability assay; format: in vitro ADME; details: pH 7.4; human liver microsomes 0.5 mg/mL, NADPH, 37 °C, up to 120 min; read-out: Microsomal Stability t1/2
Procedure: An aliquot (1 µL) of test compound (1 mM, 100% DMSO) was added to an aqueous liver microsome solution (1000 µL, PBS pH 7.4, 0.5 mg/mL human liver microsomes (Thermo Fisher Scientific, Cat#HMMPL), 2 mM NADPH, 2 mM MgCl2) and incubated at 37 °C for 120 min. Aliquots (50 µL) of the microsome solution were taken at various time points (0, 5, 10, 15, 30, 60, 90, 120 min) and added to a reaction quenching solution (200 µL 100% Acetonitrile) containing an internal standard. Solutions were clarified by centrifugation (16,000 x g, 5 min), and the supernatants were transferred to new tubes and lyophilized. Samples were reconstituted in 100 µL of 50/50/0.1 (Water/Acetonitrile/Formic Acid) prior to analysis via liquid chromatography-tandem mass spectrometry (LC-MS/MS). Chromatographic peak areas normalized to the internal standard were plotted at each time point and the half-life (t1/2) of compound in liver microsomes was determined by using the trendline equation to calculate the time at which compound abundance was 50% of that at time point 0 (t0).

[6] = Brain tissue binding assay (dialysis); format: in vitro ADME; details: brain homogenate 20 mg/mL, 2 µM compound, dialysis 4.5 hours, 37 °C
Procedure: as §1, §2

[7] = test system: nCLU levels in U-87 MG cells; assay: nCLU levels in U-87 MG cells; format: cell-based, human; details: 5 µM
[8] = biological target: BRD2 (Homo sapiens, UniProt P25440); assay: BRD2 inhibition assay; format: biochemical
[9] = biological target: BRD4 (Homo sapiens, UniProt O60885); assay: BRD4 inhibition assay; format: biochemical
[10] = test system: U-87 MG cells; assay: Cytotoxicity, MultiTox-Fluor (CNS gliotoxicity); details: U-87 MG cells, dose response (Fig. 2F)
Excerpt: Cell viability and toxicity were simultaneously assessed using the MultiTox-Fluor Multiplex Cytotoxicity Assay (Cat# PRG9200, Fisher Scientific) according to the manufacturer’s protocol.

[11] = Homo sapiens, U-87 MG cells, 30 h, AlphaLISA of supernatant, read-out: EC50 for sCLU increase
[12] = selective HDAC / BET inhibitors, dose response (Fig. S1), read-out: sCLU EC50
[13] = Homo sapiens, U-87 MG cells, dose response, text and figures, read-out: sCLU EC50

Sequence of BRD2 (P25440 whole entry): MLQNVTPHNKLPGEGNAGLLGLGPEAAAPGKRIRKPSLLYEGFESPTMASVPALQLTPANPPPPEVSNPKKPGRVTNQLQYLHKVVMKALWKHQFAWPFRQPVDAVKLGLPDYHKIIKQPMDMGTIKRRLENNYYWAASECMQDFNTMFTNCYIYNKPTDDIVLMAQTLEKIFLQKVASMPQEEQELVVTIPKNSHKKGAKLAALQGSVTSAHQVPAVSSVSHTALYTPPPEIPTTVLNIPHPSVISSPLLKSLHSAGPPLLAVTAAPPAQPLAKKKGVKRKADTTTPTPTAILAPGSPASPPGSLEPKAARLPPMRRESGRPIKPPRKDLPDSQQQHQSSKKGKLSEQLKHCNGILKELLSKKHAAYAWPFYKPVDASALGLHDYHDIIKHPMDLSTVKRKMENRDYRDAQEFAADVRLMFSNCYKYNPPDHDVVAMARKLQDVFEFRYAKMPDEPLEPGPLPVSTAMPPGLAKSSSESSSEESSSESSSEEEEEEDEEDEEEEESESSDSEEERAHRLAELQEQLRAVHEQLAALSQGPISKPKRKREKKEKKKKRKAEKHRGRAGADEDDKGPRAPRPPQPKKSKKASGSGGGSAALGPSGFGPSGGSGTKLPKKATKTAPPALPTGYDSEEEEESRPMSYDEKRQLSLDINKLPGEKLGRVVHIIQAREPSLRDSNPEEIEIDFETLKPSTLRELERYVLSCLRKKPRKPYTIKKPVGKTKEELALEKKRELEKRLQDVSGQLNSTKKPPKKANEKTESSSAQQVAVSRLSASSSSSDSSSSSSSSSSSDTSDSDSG

SMILES	Plasma Binding [1] [% bound]	solubility kinetic at 90 min [2] [µM]	PAMPA Pm [3]	EC50 [4, 11] [nM]	half-life at 1 µM [5] [min]	Brain Tissue Binding [6] [% bound]	also measured
Cc1sc2c(c1C)C(c1ccc(Cl)cc1)=N[C@@H](CC(=O)OC(C)(C)C)c1nnc(C)n1-2 [(+)-JQ1, reference compound]	85	86.5 (≈ 39.5 µg/mL)	1.44	313	27	87	nCLU levels [7]: not affecting nCLU levels
CCNC(=O)c1cc2c(-c3cc(C(C)(C)O)ccc3Oc3c(C)cc(F)cc3C)cn(C)c(=O)c2[nH]1 [ABBV-774]	–	–	–	–	–	–	potency as sCLU enhancer, comparison in words ([4]; U-87 MG cells, dose response): less potent sCLU enhancers than pan-BET inhibitors; EC50 [4, 12]: 1100 nM
CCCc1nn(C)c2c(=O)[nH]c(-c3cc(Cc4ccc(C(=O)Nc5ccccc5N)cc4)ccc3OCC)nc12 [CM-675]	–	–	–	–	–	–	EC50 [4, 12]: 6000 nM
Cc1sc2c(c1C)C(c1ccc(Cl)cc1)=N[C@@H](CC(=O)OC1CCCC1)c1nnc(C)n1-2 [DDL-351]	99	57.5 (≈ 27 µg/mL)	1.35	117	3	94	IC50 [8]: 175 nM; IC50 [9]: 27 nM
Cc1sc2c(c1C)C(c1ccc(Cl)cc1)=N[C@@H](CC(=O)N1CCCC1)c1nnc(C)n1-2 [DDL-352]	96	> 100	0.98	1440	62	64	IC50 ([8]; read-out: BRD2 IC50): 644 nM; IC50 ([9]; read-out: BRD4 IC50): 105 nM
Cc1sc2c(c1C)C(c1ccc(Cl)cc1)=N[C@@H](CC(=O)NC1CCCC1)c1nnc(C)n1-2 [DDL-353]	93	> 100	1.08	977	8	79	IC50 ([8]; read-out: BRD2 IC50): 385 nM; IC50 ([9]; read-out: BRD4 IC50): 63 nM
Cc1sc2c(c1C)C(c1ccc(Cl)cc1)=N[C@@H](CC(=O)NCC(=O)OC(C)C)c1nnc(C)n1-2 [DDL-354]	91	91.1 (≈ 45.6 µg/mL)	0.76	676	12	67	IC50 ([8]; read-out: BRD2 IC50): 382 nM; IC50 ([9]; read-out: BRD4 IC50): 48 nM
Cc1sc2c(c1C)C(c1ccc(Cl)cc1)=N[C@@H](CC(=O)OC1CCC1)c1nnc(C)n1-2 [DDL-355]	86	63.7 (≈ 29 µg/mL)	1.42	99	27	88	IC50 [8]: 163 nM; IC50 [9]: 19 nM
CCCCOC(=O)C[C@@H]1N=C(c2ccc(Cl)cc2)c2c(sc(C)c2C)-n2c(C)nnc21 [DDL-358]	98	59.3 (≈ 27.1 µg/mL)	1.42	446	14	93	IC50 [8]: 207 nM; IC50 [9]: 28 nM
Cc1sc2c(c1C)C(c1ccc(Cl)cc1)=NC(CC(=O)NC(C)C(=O)OC(C)C)c1nnc(C)n1-2 (centres unmarked) [DDL-359]	94	> 100	0.71	2340	13	44	IC50 ([8]; read-out: BRD2 IC50): 130 nM; IC50 ([9]; read-out: BRD4 IC50): 353 nM
Cc1sc2c(c1C)C(c1ccc(Cl)cc1)=N[C@@H](CC(=O)NO)c1nnc(C)n1-2 [DDL-360]	88	> 100	1.09	631	> 120	59	IC50 ([8]; read-out: BRD2 IC50): 395 nM; IC50 ([9]; read-out: BRD4 IC50): 70 nM
COc1cc2c(cc1-c1c(C)noc1C)ncc1[nH]c(=O)n(C(C)c3ccccn3)c12 (centres unmarked) [I-BET151]	–	–	–	–	–	–	EC50 [4, 13]: 617 nM; sCLU levels relative to DMSO control ([4]; U-87 MG cells): increased sCLU; also recorded: significantly increase sCLU levels; nCLU levels [7]: not affecting nCLU levels
O=C(NO)c1ccc(CNc2cccc3cccnc23)cc1 [MPT0G211]	–	–	–	–	–	–	EC50 [4, 12]: 10000 nM
Cc1cc(/N=N/c2ccc(S(=O)(=O)Nc3ccccn3)cc2)c(N)cc1O [MS436]	–	–	–	–	–	–	potency as sCLU enhancer, comparison in words ([4]; U-87 MG cells, dose response): less potent sCLU enhancers than pan-BET inhibitors
Nc1cc(F)ccc1NC(=O)/C=C/c1cnn(C/C=C/c2ccccc2)c1 [RGFP966]	–	–	–	–	–	–	EC50 ([4]; Homo sapiens, U-87 MG, selective HDAC / BET inhibitors, dose response 2-5000 nM (Fig. S1), read-out: sCLU EC50): 10100 nM
O=C(/C=C/c1cccc(S(=O)(=O)Nc2ccccc2)c1)NO [belinostat]	–	–	–	–	–	–	EC50 [4, 13]: 1120 nM; sCLU levels relative to DMSO control ([4]; U-87 MG cells): increased sCLU; cytotoxicity, comparison in words [10]: significant differences between belinostat and the BET inhibitors at the highest concentrations tested; nCLU levels [7]: not affecting nCLU levels
COc1cc(/C=C/C(=O)N2CCC=CC2=O)cc(OC)c1OC [piperlongumine]	–	–	–	–	–	–	sCLU levels relative to DMSO control ([4]; U-87 MG cells): significantly increase sCLU levels
O=C(CCCCCCC(=O)Nc1ccccc1)NO [vorinostat]	–	–	–	–	–	–	nCLU levels [7]: not affecting nCLU levels
